According to ChEMBL document CHEMBL4706608, “Design and synthesis of 3-(4-pyridyl)-5-(4-sulfamido-phenyl)-1,2,4-oxadiazole derivatives as novel GSK-3β inhibitors and evaluation of their potential as multifunctional anti-Alzheimer agents” (Eur J Med Chem, 2021):
pIC50: −log10 of the molar value. Activity calls are given as the source filed them. No cut-off for these calls is given here.

Tests used:
[1] = test system: PC-12; test: Neuroprotective activity against H2O2-induced cytotoxicity in rat PC12 cells assessed as increase in cell viability at 10 uM preincubated for 3 hrs followed by H2O2 addition and measured after 24 hrs by MTT assay (reference value: 24.8 to 41.7%); format: functional
[2] = Cytotoxicity against rat PC-12 cells assessed as cell viability at 50 uM by MTT assay relative to control; format: cell-based; details: read-out: Activity
[3] = Cytotoxicity against rat PC-12 cells assessed as cell viability at 30 uM by MTT assay relative to control; format: cell-based; details: read-out: Activity
[4] = test system: BV-2; test: Anti-neuroinflammation in mouse BV2 cells assessed as inhibition of LPS-induced NO production preincubated for 1 hr followed by LPS addition measured after 24 hrs by Griess reagent based assay; format: functional, cell-based
[5] = molecular target: Glycogen synthase kinase-3 beta (Homo sapiens, UniProt P49841); test: Inhibition of GSK3beta (unknown origin) measured after 40 mins by ADP-Glo assay
[6] = test system: PC-12; test: Neuroprotective activity against H2O2-induced cytotoxicity in rat PC12 cells assessed as increase in cell viability at 30 uM preincubated for 3 hrs followed by H2O2 addition and measured after 24 hrs by MTT assay (reference value: 24.8 to 41.7%); format: functional
[7] = test system: HepG2; test: Increase in glucose consumption in human HepG2 cells at 20 uM after 24 hrs by glucose oxidase assay; format: functional, cell-based

Sequence of Glycogen synthase kinase-3 beta (P49841 whole entry): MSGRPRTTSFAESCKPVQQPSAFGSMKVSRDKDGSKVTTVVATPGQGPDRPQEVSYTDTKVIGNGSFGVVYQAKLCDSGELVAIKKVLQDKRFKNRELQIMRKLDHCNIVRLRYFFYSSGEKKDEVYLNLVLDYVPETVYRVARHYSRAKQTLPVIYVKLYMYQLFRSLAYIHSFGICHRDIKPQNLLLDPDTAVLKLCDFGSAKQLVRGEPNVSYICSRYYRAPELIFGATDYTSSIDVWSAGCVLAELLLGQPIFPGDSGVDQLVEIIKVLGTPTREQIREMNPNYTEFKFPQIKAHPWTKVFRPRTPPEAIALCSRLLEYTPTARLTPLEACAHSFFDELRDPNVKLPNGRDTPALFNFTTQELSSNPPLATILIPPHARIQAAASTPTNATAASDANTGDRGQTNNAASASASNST

SMILES | pIC50 [4] | pIC50 [5] | Activity [1] | viability at 50 µM [2] | viability at 30 µM [3] | Activity [6] | Activity [7]
CC(C)(C)c1ccc(S(=O)(=O)Nc2ccc(-c3nc(-c4ccnc(Nc5ccc(C(F)(F)F)cc5)c4)no3)cc2)cc1 | 5.06 | 5.83 | 63.2% | 94.1% | 99.1% | 71.9% | 
Cc1ccccc1Nc1cc(-c2noc(-c3ccc(NS(=O)(=O)c4ccc(C(C)(C)C)cc4)cc3)n2)ccn1 | 5.22 | 5.64 | 51.5% | 99.3% | 100% | 69.3% | 
Oc1ccc(/C=C/c2cc(O)cc(O)c2)cc1 [RESVERATROL] | 4.99 |  |  |  |  |  | 
CCc1ccc(Nc2cc(-c3noc(-c4ccc(NS(=O)(=O)c5ccc(C(C)(C)C)cc5)cc4)n3)ccn2)cc1 | 5.27 | 5.49 | 31.5% | 83.6% | 98.6% | 36.6% | 
O=S(=O)(Nc1ccc(-c2nc(-c3ccnc(Nc4ccc(OC(F)(F)F)cc4)c3)no2)cc1)c1cccc(C(F)(F)F)c1 | 5.83 | 5.58 | 54.6% | 90.4% | 97.4% | 60.7% | inactive
CC(C)c1ccc(Nc2cc(-c3noc(-c4ccc(NS(=O)(=O)c5ccc(C(C)(C)C)cc5)cc4)n3)ccn2)cc1 | 5.11 | 5.68 | 48.3% | 78.8% | 98.8% | 54.4% | 
COc1ccc(Nc2cc(-c3noc(-c4ccc(NS(=O)(=O)c5ccc(C(C)(C)C)cc5)cc4)n3)ccn2)cc1 | 5.21 | 5.00 | 44.5% | 91.6% | 98.6% | 48.1% | 
Cc1cccc(Nc2cc(-c3noc(-c4ccc(NS(=O)(=O)c5ccc(C(C)(C)C)cc5)cc4)n3)ccn2)c1 | 4.98 | 6.03 | 52.3% | 93.8% | 93.8% | 68.5% | 
CC(C)(C)c1ccc(S(=O)(=O)Nc2ccc(-c3nc(-c4ccnc(Nc5ccc(Cl)cc5F)c4)no3)cc2)cc1 | 5.36 | 5.55 | 46% | 88.5% | 98.5% | 49.6% | 
CC(C)(C)c1ccc(Nc2cc(-c3noc(-c4ccc(NS(=O)(=O)c5ccc(C(C)(C)C)cc5)cc4)n3)ccn2)cc1 | 4.96 | 6.25 | 61.3% | 99.7% | 96.2% | 70.1% | Active
Cc1ccc(Nc2cc(-c3noc(-c4ccc(NS(=O)(=O)c5ccc(C(C)(C)C)cc5)cc4)n3)ccn2)cc1 | 5.82 | 5.34 | 59.4% | 87.9% | 97.9% | 64.4% | 
O=c1c(O)c(-c2ccc(O)c(O)c2)oc2cc(O)cc(O)c12 [QUERCETIN] |  |  | 53.4% | 99.5% | 99.1% | 65.7% | 
CC(C)(C)c1ccc(S(=O)(=O)Nc2ccc(-c3nc(-c4ccnc(Nc5ccc(F)c(C(F)(F)F)c5)c4)no3)cc2)cc1 | 5.05 | 5.41 | 48.9% | 75.9% | 98.9% | 61.7% | 

Now from value to compound, other results behind:

pIC50 [4] | pIC50 [5] | SMILES | Activity [1] | viability at 50 µM [2] | viability at 30 µM [3] | Activity [6] | Activity [7]
5.49 | 4.81 | COc1ccc(S(=O)(=O)Nc2ccc(-c3nc(-c4ccnc(Nc5ccc(OC(F)(F)F)cc5)c4)no3)cc2)cc1 | 55.8% | 92.2% | 99.2% | 68.6% | Active
5.12 | 5.66 | CC(=O)Nc1cccc(S(=O)(=O)Nc2ccc(-c3nc(-c4ccnc(Nc5ccc(OC(F)(F)F)cc5)c4)no3)cc2)c1 | 51.6% | 79.2% | 93.2% | 54.7% | inactive
5.88 | 5.92 | COC(=O)c1ccc(S(=O)(=O)Nc2ccc(-c3nc(-c4ccnc(Nc5ccc(OC(F)(F)F)cc5)c4)no3)cc2)s1 | 25.6% | 98.6% | 97.2% | 30.6% | 
5.37 | 5.06 | O=S(=O)(Nc1ccc(-c2nc(-c3ccnc(Nc4ccc(OC(F)(F)F)cc4)c3)no2)cc1)c1ccc(OC(F)(F)F)cc1 | 30.6% | 100% | 98.7% | 32.4% | 
5.21 | 5.53 | O=S(=O)(Nc1ccc(-c2nc(-c3ccnc(Nc4ccc(OC(F)(F)F)cc4)c3)no2)cc1)c1ccc(Cl)s1 | 27.1% | 87.9% | 97.9% | 32.7% | 
5.29 | 5.51 | O=S(=O)(Nc1ccc(-c2nc(-c3ccnc(Nc4ccc(OC(F)(F)F)cc4)c3)no2)cc1)c1ccc(Br)cc1 | 52.3% | 82.5% | 102% | 55.8% | 
5.67 | 5.08 | O=[N+]([O-])c1cccc(S(=O)(=O)Nc2ccc(-c3nc(-c4ccnc(Nc5ccc(OC(F)(F)F)cc5)c4)no3)cc2)c1 | 53.7% | 94.3% | 94.3% | 64.7% | 
5.89 | 5.12 | O=S(=O)(Nc1ccc(-c2nc(-c3ccnc(Nc4ccc(OC(F)(F)F)cc4)c3)no2)cc1)c1cccs1 | 57% | 94.5% | 97.5% | 54.9% | Active
6.14 | 5.12 | CC(C)(C)c1ccc(S(=O)(=O)Nc2ccc(-c3nc(-c4ccnc(Nc5ccc(OC(F)(F)F)cc5)c4)no3)cc2)cc1 | 48.1% | 95.3% | 96.3% | 63.1% | 
5.36 | 5.57 | O=S(=O)(Nc1ccc(-c2nc(-c3ccnc(Nc4ccc(OC(F)(F)F)cc4)c3)no2)cc1)c1ccc(F)cc1 | 59.4% | 97.9% | 99.9% | 67.3% | 
5.30 | 4.72 | O=S(=O)(Nc1ccc(-c2nc(-c3ccnc(Nc4ccc(OC(F)(F)F)cc4)c3)no2)cc1)c1ccc(F)c(Cl)c1 | 36.9% | 92.1% | 98.1% | 40.1% | 
5.12 | < 4.30 | O=[N+]([O-])c1ccc(S(=O)(=O)Nc2ccc(-c3nc(-c4ccnc(Nc5ccc(OC(F)(F)F)cc5)c4)no3)cc2)cc1 | 38.6% | 90.5% | 98.5% | 53.4% | inactive
5.60 | 5.92 | O=S(=O)(Nc1ccc(-c2nc(-c3ccnc(Nc4ccc(OC(F)(F)F)cc4)c3)no2)cc1)c1ccccc1OC(F)(F)F | 40.4% | 85.6% | 91.6% | 49.8% | 
